In the METLIN SMRT retention time set (Domingo-Almenara et al. 2019) one finds RP-LC retention time data, which are given here for 59 molecules.

The series can be described thus: gradient 5% acetonitrile 3 min, to 50% in 2 min, to 85% in 15 min, held 3 min, 100 µL/min. The note with it: column: Zorbax Extend-C18 2.1 x 50 mm; eluents: water / acetonitrile, 0.1% formic acid. An outline of the steps: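 Pure standards were run in mixtures of ~100 molecules by HPLC coupled to a quadrupole time-of-flight mass spectrometer. The column was a Zorbax Extend-C18 (2.1 × 50 mm, 1.8 μm) at 100 μL/min, with water and acetonitrile each containing 0.1% formic acid, in positive and negative ionization mode. Dead and dwell volumes were 40 μL and 900 μL. Retention time was taken from computationally picked adduct peaks, each manually inspected, with data collected over 3 months.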
`O=C(COc1ccccc1)N1CCN(c2nc(CN3CCCCC3)cs2)CC1` showed an RP-LC retention time of 636 s.
As for `Cc1c(CCC(=O)N[C@H](CCS(C)=O)C(=O)O)c(=O)oc2cc(O)ccc12` (some centres undefined), the figure is 575 s; as for `CCCn1cc(C(=O)NCC(=O)OCC)c(S(=O)(=O)N2CCN(c3ccccc3Cl)CC2)n1`, 1090 s; as for `COc1ccccc1-n1ccn2cc(-c3cccc(Cl)c3)nc2c1=O`, 873 s.
`COc1ccc(NS(=O)(=O)c2cc(-c3nc(C(C)(C)C)cs3)cs2)cc1F`: the RP-LC retention time amounted to 1180 s.
As for `Cc1cc(C)cc(C(=O)N2CCCC(C(=O)NCCN(C)C)C2)c1` (centres undefined), the RP-LC retention time amounted to 599 s.
With `CCc1ccc(C(=O)N2CCCn3nc(-c4cccs4)cc3C2)cc1`, the RP-LC retention time came to 913 s.
As for `CC1=C(c2ccccc2)S(=O)(=O)N=C1N1CCC(NC(=O)COc2ccccc2)CC1`, the figure is 841 s; as for `CC(C)c1ccc(NC(=O)C2CCCN(c3ncnc4c3nc3n4CCCCC3)C2)cc1` (centres undefined), 899 s; as for `Cc1ccc(F)c(-n2nnc(C(=O)O)c2-c2ccccn2)c1`, 917 s.
`Cc1cccc(-c2nc(C)c(C(=O)NC3CC3)s2)c1` gave an RP-LC retention time of 869 s.
For `O=C(c1cccc(Cl)c1)N1CCN(C(=O)c2nnn3c2COC(c2ccc(F)cc2)C3)CC1` (centres undefined), the RP-LC retention time stood at 913 s.
Consider `CCCN1C(=O)COc2ccc(-c3noc(CNC(=O)c4ccccc4)n3)cc21`, for which the RP-LC retention time is 870 s.
Turning to `CC(Oc1ccc2c(c1)OCO2)C(=O)NCCn1nc(-c2cccs2)ccc1=O` (centres undefined), the RP-LC retention time came to 712 s.
The molecule `Cc1ccccc1NC(=O)N1CCC(N(CCC(C)C)C2CCOCC2)CC1` gave an RP-LC retention time of 636 s.
Molecule `O=C(COc1ccc(Cl)cc1)Nc1nnc(SCC(=O)NC2CCCC2)s1` displayed an RP-LC retention time of 798 s.
As for `O=c1c(S(=O)(=O)N2CCCC2)cccn1Cc1ccccc1Cl`, the RP-LC retention time was found to be 860 s.
With `CC(C)n1cnc(S(=O)(=O)N2CCCC(C(=O)Nc3ccc(F)c(Cl)c3)C2)c1` (centres undefined), the RP-LC retention time stood at 848 s.
`COC(=O)c1ccccc1NC(=O)CN1C(=O)CN=C(c2ccccc2)c2ccccc21` showed an RP-LC retention time of 958 s.
`CN1CCc2nnc(C3CCCN3C(=O)Nc3cc(Cl)cc(Cl)c3)n2CC1` (centres undefined): the RP-LC retention time was 566 s.
Consider `O=C(CSc1nccn(-c2ccc(F)c(F)c2)c1=O)NCc1ccccc1Cl`, for which the RP-LC retention time amounted to 816 s.
On to `CCn1c(=O)c2ccccc2n(Cc2nc(-c3ccccc3Cl)no2)c1=O`, for which the RP-LC retention time was 1000 s.
As for `CCN(C(=O)c1cc2c(=O)n(CC)c3ccccc3n2n1)c1ccc(F)cc1`, the figure is 945 s.
As to `O=C(NCc1ccc(F)cc1)c1ccc2c(cnn2CC(=O)N2CCCCCC2)c1`, the RP-LC retention time came out at 951 s.
Consider `O=C(c1cnn(-c2ccccc2)n1)N1CCC(c2nnc(-c3ccc(F)cc3)o2)CC1`, for which the RP-LC retention time was found to be 888 s.
Regarding `CCc1nc2cc(-c3noc(-c4ccc(Br)o4)n3)ccc2o1`, the RP-LC retention time came to 1190 s.
Turning to `CCCCc1ccc(NC(=O)N2CCc3nc[nH]c3C2)cc1`, the RP-LC retention time worked out at 675 s.
`Cc1cc(=O)n(CC(=O)Nc2ccc(Br)cc2)c(N2CCOCC2)n1` showed an RP-LC retention time of 712 s.
`CC(=O)Nc1ccc(-n2cnc(C(=O)NCc3ccc(F)cc3)c2)nc1`: the RP-LC retention time was found to be 681 s.
`O=C(Nc1cccc(Cl)c1)c1cn(-c2cc(N3CCCC3)ncn2)cn1`: the RP-LC retention time turned out to be 906 s.
`CCOCCCNCc1ccc(-c2ccc(OC)c(Cl)c2)o1` returned an RP-LC retention time of 705 s.
Take `COCCCNS(=O)(=O)c1cc(-c2nc(C)cs2)n(CC(=O)N2CCCCC2)c1`: the RP-LC retention time came out at 824 s.
In the case of `O=C(NCCCOc1cccc2cccnc12)c1ccc(F)cc1Cl`, the RP-LC retention time was 580 s.
Consider `Cc1oc(C2CCN(C(=O)Cc3ccccc3Cl)CC2)nc1C(=O)N1CCCC1`, for which the RP-LC retention time was found to be 820 s.
Turning to `O=C(Cn1ncc2c(N3CCN(c4ccccn4)CC3)ncnc21)Nc1ccc(F)c(F)c1`, the RP-LC retention time worked out at 572 s.
`CCN1CCN(CCNC(=O)c2cc3n(n2)CCCN(Cc2ccc(C)cc2)C3=O)CC1` had an RP-LC retention time of 614 s.
With `Cc1nn2c(CNS(=O)(=O)c3ccc(C)c(C)c3)c(-c3ccccc3)nc2s1`, the RP-LC retention time was 916 s.
`Cn1nc(-c2ccc(NC(=O)c3cccc4ccccc34)cc2)ccc1=O` yielded an RP-LC retention time of 763 s.
As to `COc1cccc(NC(=O)N2CCC3(C2)C(=O)N(C)c2ccc(OC)cc23)c1` (centres undefined), the RP-LC retention time turned out to be 746 s.
Molecule `O=C(C1CC1)N1[C@H]2CC[C@@H]1c1cnc(-c3ccccc3)nc1C2` returned an RP-LC retention time of 817 s.
As for `Cc1ccc(CNC(=O)c2cnc(-c3ccc(C)cc3)nc2-c2ccncc2)cc1`, the figure is 923 s; as for `CCCN1C(=O)c2[nH]nc(-c3cccc(OC)c3)c2C1c1cccnc1` (centres undefined), 669 s.
As for `CCNC(=O)N1CCCC(c2cccc(C(=O)NCc3ccccc3C(F)(F)F)c2)C1` (centres undefined), the RP-LC retention time was 905 s.
The molecule `COc1cc(CCC(=O)N2CCC3(CC2)NCc2ccccc2-n2ccnc23)on1` displayed an RP-LC retention time of 584 s.
In turn, `COc1ccc(-c2nc(N3CCSCC3)ncc2C(=O)O)cc1` displayed an RP-LC retention time of 854 s.
`C=CCNC(=O)N1CCCN(C2=NS(=O)(=O)C(c3ccc(C)c(C)c3)=C2C)CC1`: the RP-LC retention time came to 770 s.
As for `Cc1cccc(C)c1NC(=O)N1CCC(OC2CCN(Cc3ccccc3)CC2)CC1`, the figure is 661 s; as for `Cc1ccc(NC(=O)N2CCC(n3c(C(F)(F)F)nc4cccnc43)CC2)cc1`, 856 s; as for `COc1cccc(-c2ccc(=O)n(CCc3nc(-c4cccc(OC)c4OC)no3)n2)c1`, 921 s.
As to `CCc1cc(C2CCCN2C(=O)Nc2ccc(Cl)cc2)on1` (centres undefined), the RP-LC retention time stood at 890 s.
Consider `O=C(CN1C(=O)C2CCCCN2c2ccc(C(=O)N3CCCC3)cc21)Nc1ccc2c(c1)OCCO2` (centres undefined), for which the RP-LC retention time was found to be 779 s.
Molecule `CC(=O)Nc1ccc(C2(C(=O)N3CCCCCC3)CCC2)cc1` yielded an RP-LC retention time of 769 s.
As to `COc1cccc(CNC(=O)C2CCCN(c3ncnc4c3oc3ccccc34)C2)c1` (centres undefined), the RP-LC retention time is 734 s.
In the case of `CC(C)C(=O)N1CCCc2ccc(NC(=O)c3ccco3)cc21`, the RP-LC retention time turned out to be 789 s.
As to `COCCNC(=O)C1(CCO)CCN(Cc2ccccc2)C1` (centres undefined), the RP-LC retention time was determined as 560 s.
Molecule `COc1ccc2[nH]cc(CCNC(=O)Cn3nc4c(cc3=O)CCCCC4)c2c1` showed an RP-LC retention time of 756 s.
`CCn1cc(S(=O)(=O)NCc2cc(F)cc(F)c2)c2cccnc21` registered an RP-LC retention time of 828 s.
Regarding `CC1CC(C)CN(CCCNC(=O)Cn2c(=O)c3cccn3c3ccccc32)C1` (centres undefined), the RP-LC retention time was 620 s.
Consider `CN1C(=O)COc2cc(-c3noc(C(=O)NCc4cccnc4)n3)ccc21`, for which the RP-LC retention time was found to be 613 s.
